Results reported in PMC11247627, “Evaluation of Antibacterial Functionalized Dihydropyrimidine Photoaffinity Probes Toward Mechanism of Action Studies” (ACS Medicinal Chemistry Letters, 2024).
Converted amounts (≈) assume the structure as drawn. “And” between values parts separate entries of the source, which are not always exact repeats. Equal values may be shown once. “Also recorded” adds a separate entry of the source.

What was measured:
[1] = MTT cytotoxicity assay, HEK293 viability; type: cell-based; conditions: human, HEK293 cells, 24 h treatment
Procedure: After determining that some of our compounds were quite potent for the inhibition of bacterial growth, we next turned toward assessing broader cytotoxicity trends. […] Further, our previously reported derivatives were also screened for red blood cell (RBC) hemolysis, and the assay indicated a lack of RBC lysis at the highest concentrations tested for all compounds (64 μg/mL).[6] […] This indicates it may have secondary mechanisms of cytotoxicity via nonspecific membrane rupturing activity, albeit, at a much higher concentration than its 2 μg/mL MIC. Next, we examined the compounds’ ability to decrease the viability of an immortalized mammalian cell line (HEK293) using a colorimetric MTT assay.[34] To our surprise, all of the compounds screened produced relatively potent cytotoxicity against this cell line. […] We screened a dihydropyrimidine where the guanidine was substituted with a urea (traditional Biginelli reaction derived), and this compound had no bacterial inhibition but continued to have significant mammalian cytotoxicity, further decoupling the antibacterial activity from mammalian cytotoxicity in these cases. Future studies involving the photoaffinity probes will examine the mechanism by which our compounds exert their growth-inhibiting effects in both bacterial and mammalian cells.
Mammalian cytotoxicity was evaluated using a commercially available MTT Cell proliferation assay 1275 (ATCC 30-1010K; Manassas, VA) following the included protocol. Briefly, Human Embryonic Kidney 293 (HEK-293; ATCC CRL-1353) cells were seeded onto 96 well plates (Nunclon Delta; ThermoFisher 167008; Waltham, MA) coated with Poly-D-Lysine (Thermofisher A3890401) at a density of […] cells per well in 80 µL of Eagle's Minimum Essential Medium (EMEM; ATCC 30-2003) with 10% Fetal Bovine Serum (ATCC 30-2021). Cells were incubated at 37 °C in a 5% CO2 atmosphere and allowed to 1280 adhere overnight, and then treated for 24 h with 20 µL of drugs dissolved in PBS with 0.5% DMSO, at concentrations ranging from 1×10^-4 M to 1×10^-9 M. Following treatment, 10 µL of MTT reagent was added to each well and allowed to incubate at 37 °C for 4 h. Then, 100 μL of detergent reagent was added to all wells, and they were stored at room temperature in the dark for 2 h. Absorbance was then read using a multi-mode spectrophotometer (Spectramax i3X; San Jose, CA) at a wavelength of 570 1285 nm. Raw values were normalized to a 0-100% scale using the maximum and minimum responses. To generate dose-response curves and IC50 values, normalized data were plotted against the log of the drug concentrations and fit to nonlinear curve [log(inhibitor) vs. response – variable slope (four parameters)] using GraphPad Prism version 7.05 (GraphPad Software; San Diego, CA).

[2] = system: Staphylococcus aureus ATCC 12600; test: Antibacterial broth microdilution assay (MIC), methicillin-sensitive S. aureus ATCC 12600; type: cell-based; conditions: Staphylococcus aureus, ATCC12600; amount inhibiting >95% of growth (A600), 18 h; suffix 'I' = partial growth inhibition at the value, >95% at higher concentrations; read-out: MIC ATCC 12600
Procedure: (§1) These 24 DHP analogues were then screened for inhibition of Staphylococcus aureus growth using microdilution assays. Growth inhibition was examined in methicillin-sensitive S. aureus (ATCC 12600) and two strains of MRSA (ATCC 33591 and ATCC 43300). Antibiotic controls were included in the screen, including carbenicillin, erythromycin, gentamycin, trimethoprim, and vancomycin, and minimum inhibitory concentrations (MICs) were determined for each compound, which were defined as the concentration required to inhibit >95% of bacterial growth (Table 1).
(§2) Antibacterial Microdilution Assay (MIC Determination)
(§3) 1240 The MIC determination assays were performed in a BSL-2 laboratory with appropriate security and biosafety measures. The MICs were determined using a broth microdilution assay closely following the guidelines of the Clinical and Laboratories Standards Institute (CLSI). MICs were determined in duplicate for two biological replicates using 2-fold serial dilutions of test compounds or commercial antibiotics in cation-adjusted Mueller-Hinton broth. The central 60 wells of 96-well plates were 1245 prepared with the compound of interest at the indicated concentration, where 2 µL of the compound in DMSO were added prior to the addition of the culture. Overnight cultures of the different Staphylococcus aureus strains were diluted to provide an initial inoculum of approximately 5 X 10 5 CFU/mL that was delivered to each well in 198 µL of culture (final DMSO concentration of ~1%). Initial inoculum concentrations were verified by plating to count CFU/mL. Each plate was equipped with 1250 experimental controls for full growth (6 wells) and full growth inhibition (6 wells), and all control wells were in the presence of 1% DMSO. The outer 36 wells were filled with 200 µL of culture each to prevent growth effects on the interior 60 wells. The plates were incubated at 37 °C for 18 hours, at which time they were removed from the incubator and were allowed to equilibrate to room temperature for 30 minutes. Absorbance of each well at 600 nm was then read using a microplate reader to 1255 determine the MIC, and visual confirmation of growth inhibition was also performed. If variation was seen in the experimental values, the highest value of two independent trials was listed.

[3] = system: Staphylococcus aureus ATCC 43300 (MRSA); test: Antibacterial broth microdilution assay (MIC), MRSA ATCC 43300; type: cell-based; conditions: amount inhibiting >95% of growth (A600), 18 h, suffix 'I' = partial growth inhibition at the value, >95% at higher concentrations; for MIC: Staphylococcus aureus, read-out: MIC ATCC 43300
Procedure: as §1, §2, §3

[4] = system: Staphylococcus aureus ATCC 33591 (MRSA); test: Antibacterial broth microdilution assay (MIC), MRSA ATCC 33591; type: cell-based; conditions: Staphylococcus aureus; amount inhibiting >95% of growth (A600), 18 h; suffix 'I' = partial growth inhibition at the value, >95% at higher concentrations; read-out: MIC ATCC 33591
Procedure: as §1, §2, §3

[5] = system: red blood cells (defibrinated sheep blood); test: Hemolysis assay (red blood cell lysis); type: cell-based; conditions: concentration producing >20% hemolysis of red blood cells, 1 h, 37 C
Procedure: (§4) 1260 1.5 mL of mechanically defibrinated sheep blood (Hemostat Labs: DSB100) was placed in a microcentrifuge tube and was centrifuged at 10,000 rpm for ten minutes. Following the removal of the supernatant, the cells were resuspended in 1 mL of phosphate-buffered saline (PBS). This process was repeated two more times. The final suspension was diluted ten-fold with PBS and was aliquoted into microcentrifuge tubes containing the compounds which were previously serial diluted in PBS. TritonX 1265 (1% by volume) served as a positive control, while sterile PBS served as a negative control. All samples were incubated at 37 °C and shaken at 200 rpm for 1 hour. After the 1 hour, the samples were centrifuged at 10,000 rpm for 5 minutes and the absorbance of the supernatant was measured via UV spectroscopy at a 540 nm wavelength.

Staphylococcus aureus = test: S. aureus growth inhibition (all three strains or strain not specified); type: cell-based; conditions: for MIC: Staphylococcus aureus, all three S. aureus strains or strain not specified, read-out: concentration inhibiting S. aureus growth (MIC); for antibacterial activity (in words): S. aureus growth
Procedure: as §1, §2, §3

[6] = Hemolysis assay (red blood cell lysis); type: cell-based, sheep; conditions: sheep, washed red blood cells from defibrinated sheep blood; 64 μg/mL; read-out: hemolysis (RBC lysis) at 64 μg/mL
Procedure: as §4

[7] = target: T1, recombinant Staphylococcus aureus DHFR (SaDHFR) (Staphylococcus aureus, UniProt P0A017); test: Inhibition of recombinant S. aureus DHFR; type: biochemical; conditions: in vitro
T1 construct: made in house
Procedure: To explore this, oxidization of DHP 7a to the pyrimidine 8a was performed using phenyliodine diacetate (PIDA) (Figure 3a),[12]−[14] as this oxidation state mimics FDA approved antimicrobial DHFR inhibitors trimethoprim 1 (Figure 1a) and pyrimethamine 9 (Figure 3b).

[8] = system: dihydrofolate reductase (DHFR); set-up: method as in PMID 18931753; conditions: cited from earlier work
mammalian toxicity = system: mammalian toxicity; set-up: method as in PMID 18931753; conditions: cited from earlier work
MRSA = system: MRSA; set-up: method as in PMID 18931753, PMID 16883415; conditions: cited from earlier work

T1 sequence (P0A017 whole entry): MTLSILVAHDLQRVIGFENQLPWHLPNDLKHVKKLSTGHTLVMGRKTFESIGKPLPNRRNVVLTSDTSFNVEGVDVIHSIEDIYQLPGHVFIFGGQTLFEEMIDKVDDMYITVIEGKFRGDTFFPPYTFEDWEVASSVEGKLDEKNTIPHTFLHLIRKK

Row | SMILES | IC50 at 24 h [1] | MIC [2] | MIC [3] | MIC [4] | lysis20 [5] | MIC (Staphylococcus aureus) | MIC ATCC 43300 [3] | hemolysis at 1 h, 64 μg/mL [6] | antibacterial activity (in words) (Staphylococcus aureus) | DHFR inhibition (in words) [7] | DHFR inhibition (in words) [8] | mammalian toxicity (in words) (mammalian toxicity) | MRSA growth inhibition (in words) (MRSA)
1 | CCOC(=O)C1=C(c2ccccc2)NC(N)=NC1c1cccc(Cl)c1 (stereo not shown) [6i] | 18 µM and 5.8 µg/mL | 32 µg/mL (≈ 89.9 µM) | 32 µg/mL (≈ 89.9 µM) | 32 µg/mL (≈ 89.9 µM) | >64 µg/mL |  |  |  |  |  |  |  | 
2 | CCOC(=O)C1=C(c2ccccc2)NC(N)=NC1c1ccc(C(C)C)cc1 (stereo not shown) [6r] | 9.5 µM and 3.1 µg/mL |  | 8 µg/mL (≈ 22 µM) |  | >64 µg/mL | 8 µg/mL (≈ 22 µM) |  |  |  |  |  |  | 
3 | CCOC(=O)C1=C(c2ccccc2)NC(N)=NC1c1ccccc1OC (stereo not shown) [6s] | 87 µM and 28 µg/mL | > 64 µg/mL | > 64 µg/mL | > 64 µg/mL | >64 µg/mL |  | >64 µg/mL |  |  |  |  |  | 
4 | CCOC(=O)C1=C(c2ccccc2)NC(N)=NC1c1ccc(OC)cc1 (stereo not shown) [6u] | 14 µM and 4.5 µg/mL |  | > 64 µg/mL | > 64 µg/mL | >64 µg/mL | > 64 µg/mL |  |  |  |  |  |  | 
5 | CCOC(=O)C1=C(c2ccccc2)NC(N)=NC1c1ccc(CC(C)C)cc1 (stereo not shown) [7a] | 7.9 µM and 2.5 µg/mL | 4 µg/mL (≈ 10.6 µM) | 4 µg/mL (≈ 10.6 µM) |  | >64 µg/mL | 4 µg/mL (≈ 10.6 µM) |  |  |  |  |  |  | 
6 | CCOC(=O)C1=C(c2ccccc2)NC(N)=NC1c1ccc(-c2ccccc2)cc1 (stereo not shown) [7b] | 9.4 µM and 3 µg/mL | 4 µg/mL (≈ 10.1 µM) | 4 µg/mL (≈ 10.1 µM) | 4 µg/mL (≈ 10.1 µM) | >64 µg/mL | 4 µg/mL (≈ 10.1 µM) |  |  |  |  |  |  | 
7 | CCOC(=O)C1=C(c2cccc(C(F)(F)F)c2)NC(N)=NC1c1cc(Cl)cc(Cl)c1 (stereo not shown) [7e] | 9.9 µM and 3.2 µg/mL | 4 µg/mL (≈ 8.73 µM) | 4 µg/mL (≈ 8.73 µM) | 4 µg/mL (≈ 8.73 µM) | >64 µg/mL |  |  |  |  |  |  |  | 
8 | CCOC(=O)C1=C(c2cccc(C(F)(F)F)c2)NC(N)=NC1c1ccc(CC(C)C)cc1 (stereo not shown) [7f] | 1.9 µM and 0.61 µg/mL | 2 µg/mL (≈ 4.49 µM) | 2 µg/mL (≈ 4.49 µM) | 2 µg/mL (≈ 4.49 µM) | 64 µg/mL | 2 µg/mL (≈ 4.49 µM) |  | > 20% |  |  |  |  | 
9 | CCOC(=O)C1=C(c2cccc(F)c2)NC(N)=NC1c1cc(Cl)cc(Cl)c1 (stereo not shown) [7g] | 14 µM and 4.5 µg/mL | 8 µg/mL (≈ 19.6 µM) | 8 µg/mL (≈ 19.6 µM) | 8 µg/mL (≈ 19.6 µM) | >64 µg/mL |  |  |  |  |  |  |  | 
10 | CCOC(=O)C1=C(c2cccc(F)c2)NC(N)=NC1c1ccc(CC(C)C)cc1 (stereo not shown) [7h] | 4.4 µM and 1.4 µg/mL | 4 µg/mL (≈ 10.1 µM) | 4 µg/mL (≈ 10.1 µM) | 4 µg/mL (≈ 10.1 µM) | >64 µg/mL |  |  |  |  |  |  |  | 
11 | CCOC(=O)C1=C(c2cccc(C)c2)NC(N)=NC1c1cc(Cl)cc(Cl)c1 (stereo not shown) [7i] | 16 µM and 5.1 µg/mL | 8 µg/mL (≈ 19.8 µM) | 8 µg/mL (≈ 19.8 µM) | 8 µg/mL (≈ 19.8 µM) | >64 µg/mL |  |  |  |  |  |  |  | 
12 | CCOC(=O)c1c(-c2ccccc2)nc(N)nc1-c1ccc(CC(C)C)cc1 [8a] |  |  |  |  |  | > 64 µg/mL |  |  | lacked antibacterial activity | no inhibition was observed; also recorded: lacked antibacterial activity and DHFR inhibition |  |  | 
13 | CCOC(=O)C1=C(CC)NC(N)=NC1c1cc(Cl)cc(Cl)c1O (stereo not shown) [compound 2, Emmacin] |  |  |  |  |  |  |  |  |  |  | previously reported to inhibit DHFR | lack mammalian toxicity | found to inhibit MRSA growth
14 | CCOC(=O)C1=C(c2ccccc2)NC(N)=NC1c1ccccc1 (stereo not shown) [compound 6] | 18 µM and 5.8 µg/mL | > 64 µg/mL | > 64 µg/mL | > 64 µg/mL | >64 µg/mL | > 64 µg/mL | >64 µg/mL |  |  |  |  |  | 
15 | CCOC(=O)c1c(C)nc(N)nc1-c1cc(Cl)cc(Cl)c1 [compound 10] |  |  |  |  |  |  |  |  | lost all antibacterial activity; also recorded: lacked antibacterial activity | lacked antibacterial activity and DHFR inhibition |  |  | 
